31 compounds from US20220213049A1, “S[…]-4-ONE FOR THE TREATMENT AND PROPHYLAXIS OF HEPATITIS B VIRUS INFECTION” (priority 2019, published 2022) can be followed below.

The term IC50 denotes the concentration that inhibits the measured activity by half.

The assay deals with HBeAg (surrogate marker for cccDNA) in HepDES19 cells. The assay is described as follows: Engineered HepDES19 primary screen assay (HBeAg ELISA). In kind it is cell-based, HBV. The conditions noted are these: Hepatitis B virus, HepDES19, 120 h, read-out: IC50 (HBeAg level, HepDES19 primary screen assay). An excerpt: The assay was employed to screen for novel cccDNA inhibitors. HepDES19 is a cccDNA-producing cell line. In this cell line, HBeAg in the cell culture supernatant as surrogate marker, as HBeAg production depends on cccDNA level and activity. HepDES19 is an engineered cell line which contains a 1.1 unit length HBV genome, and pgRNA transcription from the transgene is controlled by Tetracycline (Tet). In the absence of Tet, pgRNA transcription will be induced, but HBV e antigen (HBeAg) could not be produced from this pgRNA due to very short leader sequence before the HBeAg start codon and the start codon is disrupted. Only after cccDNA is formed, the missing leader sequence and start codon mutation would be restored from the 3′-terminal redundancy of pgRNA, and then HBeAg could be synthesized. Therefore, HBeAg could be used as a surrogate marker for cccDNA (Zhou, T. et al., Antiviral Res. (2006), 72(2), 116-124; Guo, H. et al., J. Virol. (2007), 81(22), 12472-12484).
HepDES19 cells were seeded at 2×10^6 cells per T150 flask and cultured with the culture medium (Dulbecco's Modified Eagle Medium: Nutrient Mixture F-12 [DMEM-F12, Gibco Cat. 11320-82], 10% Fetal Bovine Serum [FBS, Clontech Cat. 631101], 0.1 mM Non-Essential Amino Acids Solution [NEAA, Gibco Cat. 11140-050], 50 μg/mL Penicillin-Streptomycin [PS, Invitrogen Cat. 15140-163], 500 μg/mL Geneticin [G418, Invitrogen Cat. 10131-027]) containing 3 μg/mL Tet (Sigma, Cat. 87128) for 5 days. Cells were then seeded at 4×10^6 cells per T150 in the same culture medium as described above in the absence of Tet for 8 days. Cells were then harvested and frozen at density of 2×10^6 cells per ML. For compound testing, the frozen cells were thawed and seeded into 96-well plates at a density of 6×10^4 cells per well. At 24 hours after seeding, half log serial dilutions of compounds made with Dimethyl sulfoxide (DMSO, Sigma, Cat. D2650) were further diluted with the same culture medium as described above before they were added to the cells to reach desired final compound concentrations and 1% DMSO concentration. Plates were then incubated at 37° C. for another 5 days before measurement of HBeAg level and cell viability. Intracellular HBeAg level were measured with enzyme-linked immunosorbent assay (ELISA) kit (Shanghai Kehua Diagnostic Medical Products Co., Ltd). Cell viability was assessed using Cell Counting Kit-8 (DonJindo, Cat. CK04-20). IC50 values were derived from the dose-response curve using 4 parameter logistic curve fit method.
The compounds of the present invention were tested for their capacity to inhibit extracellular HBeAg level as described herein.
(In general: ELISA stands for enzyme-linked immunosorbent assay.)
Turning to `COc1cc(Br)c(OCCC(=O)NS(=O)(=O)C2CC2)cc1-c1cc(=O)c2cccc(Cl)c2o1` [Example 3, 3-[2-Bromo-5-(8-chloro-4-oxo-chromen-2-yl)-4-methoxy-phenoxy]-N-cyclopropylsulfonyl-propanamide], the IC50 is 580 nM. With `COc1cc(Br)c(OCC(=O)O)cc1-c1cc(=O)c2cccc(Cl)c2o1` [Example 4, 2-[2-Bromo-5-(8-chloro-4-oxo-chromen-2-yl)-4-methoxy-phenoxy]acetic acid] the figure was 1960 nM. With `COc1cc(Br)c(OCCCOCC(=O)O)cc1-c1cc(=O)c2cccc(Cl)c2o1` [Example 6, 2-[3-[2-Bromo-5-(8-chloro-4-oxo-chromen-2-yl)-4-methoxy-phenoxy]propoxy]acetic acid] the figure was 1660 nM; with `COc1cc(Cl)c(OC2CC(C(=O)O)C2)cc1-c1cc(=O)c2cccc(Cl)c2o1` (stereo not shown) [Example 7, 3-[2-Chloro-5-(8-chloro-4-oxo-chromen-2-yl)-4-methoxy-phenoxy]cyclobutanecarboxylic acid], 4510 nM. For the compound `COc1cc(C)c(OCCOC2CC(C(=O)O)C2)cc1-c1cc(=O)c2cccc(Cl)c2o1` (stereo not shown) [Example 9, 3-[2-[5-(8-Chloro-4-oxo-chromen-2-yl)-4-methoxy-2-methyl-phenoxy]ethoxy]cyclobutanecarboxylic acid], the IC50 was 5200 nM.

On to `COc1cc(C)c(OCCC(=O)O)cc1-c1cc(=O)c2cccc(Cl)c2o1` [Example 10, 3-[5-(8-Chloro-4-oxo-chromen-2-yl)-4-methoxy-2-methyl-phenoxy]propanoic acid], for which the IC50 worked out at 1540 nM. With `COc1cc(OC)c(-c2cc(=O)c3cccc(Cl)c3o2)cc1OC1CC(C(=O)O)C1` (stereo not shown) [Example 12, 3-[5-(8-Chloro-4-oxo-chromen-2-yl)-2,4-dimethoxy-phenoxy]cyclobutanecarboxylic acid] the figure was 620 nM; with `COc1cc(OC)c(-c2cc(=O)c3cccc(Cl)c3o2)cc1OCCOC1CC(C(=O)O)C1` (stereo not shown) [Example 13, 3-[2-[5-(8-Chloro-4-oxo-chromen-2-yl)-2,4-dimethoxy-phenoxy]ethoxy]cyclobutanecarboxylic acid], 190 nM. The result for `Cc1ccc(-c2cc(=O)c3cccc(Cl)c3o2)cc1OCC(=O)O` [Example 14, 2-[5-(8-Chloro-4-oxo-chromen-2-yl)-2-methyl-phenoxy]acetic acid] reads 6320 nM. The result for `Cc1ccc(-c2cc(=O)c3cccc(Cl)c3o2)cc1O[C@H]1C[C@H](C(=O)O)C1` [Example 16, trans-3-[5-(8-chloro-4-oxo-chromen-2-yl)-2-methyl-phenoxy]cyclobutanecarboxylic acid] reads 6360 nM; that for `COc1ccc(-c2cc(=O)c3cccc(Cl)c3o2)cc1OC1CC(C(=O)O)C1` (stereo not shown) [Example 17, 3-[5-(8-Chloro-4-oxo-chromen-2-yl)-2-methoxy-phenoxy]cyclobutanecarboxylic acid], 720 nM. `COc1ccc(-c2cc(=O)c3cccc(Cl)c3o2)cc1OCCOC1CC(C(=O)O)C1` (stereo not shown) [Example 18, 3-[2-[5-(8-Chloro-4-oxo-chromen-2-yl)-2-methoxy-phenoxy]ethoxy]cyclobutanecarboxylic acid]: the IC50 stood at 520 nM. Take `COc1ccc(-c2cc(=O)c3cccc(Cl)c3o2)cc1OCCC(=O)O` [Example 19, 3-[5-(8-Chloro-4-oxo-chromen-2-yl)-2-methoxy-phenoxy]propanoic acid]: the IC50 is 7930 nM. With `O=c1cc(-c2ccc(C(F)(F)F)c(O[C@H]3C[C@@H](C(=O)O)C3)c2)oc2c(Cl)cccc12` [Example 20, Cis-3-[5-(8-chloro-4-oxo-chromen-2-yl)-2-(trifluoromethyl)phenoxy]cyclobutanecarboxylic acid] the figure was 2140 nM. Take `O=c1cc(-c2ccc(C(F)(F)F)c(O[C@H]3C[C@H](C(=O)O)C3)c2)oc2c(Cl)cccc12` [Example 21, trans-3-[5-(8-chloro-4-oxo-chromen-2-yl)-2-(trifluoromethyl)phenoxy]cyclobutanecarboxylic acid]: the IC50 turned out to be 4120 nM. With `COc1cc(-c2cc(=O)c3cccc(Cl)c3o2)cc(O[C@H]2C[C@@H](C(=O)O)C2)c1OC` [Example 23, Cis-3-[5-(8-chloro-4-oxo-chromen-2-yl)-2,3-dimethoxy-phenoxy]cyclobutanecarboxylic acid] the figure was 7360 nM; with `COc1cc(-c2cc(=O)c3cccc(Cl)c3o2)cc(OCCO[C@H]2C[C@H](C(=O)O)C2)c1OC` [Example 24, Trans-3-[2-[5-(8-chloro-4-oxo-chromen-2-yl)-2,3-dimethoxy-phenoxy]ethoxy]cyclobutanecarboxylic acid], 1460 nM; with `COc1cc(-c2cc(=O)c3cccc(Cl)c3o2)cc(OCC(=O)O)c1OC` [Example 25, 2-[5-(8-Chloro-4-oxo-chromen-2-yl)-2,3-dimethoxy-phenoxy]acetic acid], 7510 nM.

Take `COc1cc(Br)c(-c2cc(=O)c3cccc(Cl)c3o2)cc1O[C@H]1C[C@H](C(=O)O)C1` [Example 26, Trans-3-[4-bromo-5-(8-chloro-4-oxo-chromen-2-yl)-2-methoxy-phenoxy]cyclobutanecarboxylic acid]: the IC50 turned out to be 1070 nM. `COc1cc(Br)c(-c2cc(=O)c3cccc(Cl)c3o2)cc1OCCO[C@H]1C[C@H](C(=O)O)C1` [Example 27, Trans-3-[2-[4-Bromo-5-(8-chloro-4-oxo-chromen-2-yl)-2-methoxy-phenoxy]ethoxy]cyclobutanecarboxylic acid]: the IC50 came out at 3240 nM. With `COc1c(OC2CC(C(=O)O)C2)cccc1-c1cc(=O)c2cccc(Cl)c2o1` (stereo not shown) [Example 28, 3-[3-(8-Chloro-4-oxo-chromen-2-yl)-2-methoxy-phenoxy]cyclobutanecarboxylic acid] the figure was 560 nM; with `COc1c(OCCO[C@H]2C[C@@H](C(=O)O)C2)cccc1-c1cc(=O)c2cccc(Cl)c2o1` [Example 29, Cis-3-[2-[3-(8-chloro-4-oxo-chromen-2-yl)-2-methoxy-phenoxy]ethoxy]cyclobutanecarboxylic acid], 3240 nM. With `COc1ccc(OC2CC(C(=O)O)C2)cc1-c1cc(=O)c2cccc(Cl)c2o1` (stereo not shown) [Example 30, 3-[3-(8-Chloro-4-oxo-chromen-2-yl)-4-methoxy-phenoxy]cyclobutanecarboxylic acid] the figure was 7510 nM.

In the case of `COc1ccc(OCC(=O)O)cc1-c1cc(=O)c2cccc(Cl)c2o1` [Example 32, 2-[3-(8-Chloro-4-oxo-chromen-2-yl)-4-methoxy-phenoxy]acetic acid], the IC50 turned out to be 7130 nM. With `COc1ccc(OCCC(=O)O)cc1-c1cc(=O)c2cccc(Cl)c2o1` [Example 33, 3-[3-(8-Chloro-4-oxo-chromen-2-yl)-4-methoxy-phenoxy]propanoic acid] the figure was 6750 nM. Turning to `COc1c(-c2cc(=O)c3cccc(Cl)c3o2)ccc(Br)c1OCCO[C@H]1C[C@@H](C(=O)O)C1` [Example 34, Cis-3-[2-[6-bromo-3-(8-chloro-4-oxo-chromen-2-yl)-2-methoxy-phenoxy]ethoxy]cyclobutanecarboxylic acid], the IC50 came to 940 nM. For the compound `COc1c(-c2cc(=O)c3cccc(Cl)c3o2)ccc(Cl)c1OCC(=O)O` [Example 37, 2-[6-Chloro-3-(8-chloro-4-oxo-chromen-2-yl)-2-methoxy-phenoxy]acetic acid], the IC50 was determined as 10100 nM. The result for `COc1ccc(-c2cc(=O)c3cccc(Cl)c3o2)c(OC)c1OCC(=O)O` [Example 38, 2-[3-(8-Chloro-4-oxo-chromen-2-yl)-2,6-dimethoxy-phenoxy]acetic acid] reads 1130 nM; that for `CCOc1cc(Br)c(OCCC(=O)O)cc1-c1cc(=O)c2cccc(Cl)c2o1` [Example 39, 3-[2-Bromo-5-(8-chloro-4-oxo-chromen-2-yl)-4-ethoxy-phenoxy]propanoic acid], 110 nM; that for `O=C(O)CCOc1cc(-c2cc(=O)c3cccc(Cl)c3o2)c(OC(F)F)cc1Br` [Example 40, 3-[2-Bromo-5-(8-chloro-4-oxo-chromen-2-yl)-4-(difluoromethoxy)phenoxy]propanoic acid], 1390 nM. The result for `O=C(O)CCOc1cc(-c2cc(=O)c3cccc(Cl)c3o2)c(F)cc1Br` [Example 41, 3-[2-Bromo-5-(8-chloro-4-oxo-chromen-2-yl)-4-fluoro-phenoxy]propanoic acid] reads 133 nM.
